Measurements from PMC10709440, “High-throughput ligand profile characterization in novel cell lines expressing seven heterologous insect olfactory receptors for the detection of volatile plant biomarkers” (Scientific Reports, 2023).
Where two headings read alike, the source gives them in different places.

Tests used:
Drosophila OR13a = target: T1, Drosophila OR13a (Drosophila melanogaster, UniProt Q9VXL0); test: Calcium ion fluorescence (GCaMP6) assay, OR13a stable HEK293 cell line; format: cell-based; conditions: for OR13a response (VUAA1-normalized) at 1 μM / OR13a response (VUAA1-normalized) at 10 μM / OR13a response (VUAA1-normalized) at 100 μM: OR13a cell line; for OR13a response (VUAA1-normalized) at 1 μM: VOC concentration 1 μM; for OR13a response (VUAA1-normalized) at 10 μM: VOC concentration 10 μM; for OR13a response (VUAA1-normalized) at 100 μM: VOC concentration 100 μM
T1 construct: expressed in transfected cells
T1 sequence (Q9VXL0 1-418): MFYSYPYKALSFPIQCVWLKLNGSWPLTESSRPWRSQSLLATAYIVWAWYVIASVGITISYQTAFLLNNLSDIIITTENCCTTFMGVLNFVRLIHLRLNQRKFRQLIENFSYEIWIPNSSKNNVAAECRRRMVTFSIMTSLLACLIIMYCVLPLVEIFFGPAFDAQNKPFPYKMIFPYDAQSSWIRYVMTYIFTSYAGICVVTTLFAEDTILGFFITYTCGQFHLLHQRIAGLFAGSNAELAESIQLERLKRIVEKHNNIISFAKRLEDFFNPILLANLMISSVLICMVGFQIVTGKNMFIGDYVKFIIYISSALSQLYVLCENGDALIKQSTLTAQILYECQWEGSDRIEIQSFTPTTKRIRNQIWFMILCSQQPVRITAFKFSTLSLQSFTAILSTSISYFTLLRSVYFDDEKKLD
T1 sequence (Q9VNB5 1-486 partner): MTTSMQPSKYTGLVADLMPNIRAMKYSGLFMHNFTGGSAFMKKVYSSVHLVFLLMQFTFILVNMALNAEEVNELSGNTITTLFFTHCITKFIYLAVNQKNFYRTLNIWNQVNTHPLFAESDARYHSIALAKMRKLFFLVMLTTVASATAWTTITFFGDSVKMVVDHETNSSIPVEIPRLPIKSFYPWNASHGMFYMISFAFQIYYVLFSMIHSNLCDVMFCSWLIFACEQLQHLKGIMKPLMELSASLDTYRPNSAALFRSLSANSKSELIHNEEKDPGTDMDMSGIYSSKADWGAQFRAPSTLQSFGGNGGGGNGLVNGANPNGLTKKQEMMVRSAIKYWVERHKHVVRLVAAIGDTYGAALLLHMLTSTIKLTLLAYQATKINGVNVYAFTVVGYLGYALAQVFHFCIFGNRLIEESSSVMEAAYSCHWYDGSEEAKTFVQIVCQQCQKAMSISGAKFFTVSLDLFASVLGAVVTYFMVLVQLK
Method in brief: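 HEK293 lines stably expressing each Drosophila OR with GCaMP6, doxycycline-induced (1 μg/mL) 48 or 72 h. Fluorescence recorded 5 s baseline then 30 s after VOC injection at pH 7.3; ΔF=(FMAX−F0)/F0, normalized to 50 µM VUAA1 response per line, triplicate wells averaged; concentration series 0.01–100 μM.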

OR98a = test system: OR98a; set-up: method as in earlier work; conditions: DoOR database value, ref DoOR, cited from earlier work
OR85b = test system: OR85b; set-up: method as in earlier work; conditions: DoOR database value, ref DoOR, cited from earlier work
OR49b = test system: OR49b; set-up: method as in earlier work; conditions: DoOR database value, ref DoOR, cited from earlier work
OR10a = test system: OR10a; set-up: method as in earlier work; conditions: DoOR database value, ref DoOR, cited from earlier work
OR13a = test system: OR13a; set-up: method as in earlier work; conditions: DoOR database value, ref DoOR, cited from earlier work
OR47a = test system: OR47a; set-up: method as in earlier work; conditions: DoOR database value, ref DoOR, cited from earlier work
[1] = HEK293, read-out: OR13a Average response (VUAA1-normalized), 1 μM VOC, 50 μM VUAA1 = 1, responses not exceeding 0.05 considered 0
[2] = HEK293, read-out: OR13a Average response (VUAA1-normalized), 10 μM VOC, 50 μM VUAA1 = 1, responses not exceeding 0.05 considered 0
[3] = HEK293, read-out: OR13a Average response (VUAA1-normalized), 100 μM VOC, 50 μM VUAA1 = 1, responses not exceeding 0.05 considered 0
[4] = HEK293, read-out: OR13a response (VUAA1-normalized response), VOC concentration 1 μM
[5] = HEK293, read-out: OR13a response (VUAA1-normalized response), VOC concentration 10 μM
[6] = HEK293, read-out: OR13a response (VUAA1-normalized response), VOC concentration 100 μM
[7] = ligand concentration 1 (unit not given), threshold 0.05, below shown as 0
[8] = ligand concentration 10 (unit not given), threshold 0.05, below shown as 0
[9] = ligand concentration 100 (unit not given), threshold 0.05, below shown as 0

SMILES | activation at 1 µM (Drosophila OR13a; [1]) | activation at 10 µM (Drosophila OR13a; [2]) | activation at 100 µM (Drosophila OR13a; [3]) | activation at 1 µM (Drosophila OR13a; [4]) | activation at 10 µM (Drosophila OR13a; [5]) | activation at 100 µM (Drosophila OR13a; [6]) | OR98a DoOR response (OR98a) | OR85b DoOR response (OR85b) | OR49b DoOR response (OR49b) | OR10a DoOR response (OR10a) | OR13a DoOR response (OR13a) | OR47a DoOR response (OR47a) | DF norm AVERAGE OR13a (Drosophila OR13a; [7]) | DF norm AVERAGE OR13a (Drosophila OR13a; [8]) | DF norm AVERAGE OR13a (Drosophila OR13a; [9]) | further results
CCCCCC(O)CC (stereo not drawn) [3-octanol] | 0% | 0% | 12% | 0% | 0% | 12% | 0.59 | 0.68 | 0.03 | 0.12 | 0.58 | 0.47 |  |  |  | DF norm AVERAGE OR13a (Drosophila OR13a; concentration 1, normalized fluorescence change, values below 0.05 threshold given as 0): 0; DF norm AVERAGE OR13a (Drosophila OR13a; concentration 10, normalized fluorescence change, values below 0.05 threshold given as 0): 0; DF norm AVERAGE OR13a (Drosophila OR13a; concentration 100, normalized fluorescence change, values below 0.05 threshold given as 0): 0.1167
CC1=CCC2CC1C2(C)C (stereo not drawn) [alpha-pinene] | 0% | 0% | 1.73% | 0% | 0% | 0% | 0.43 | 0.15 | 0.018 | 0.004 | 0.10 | 0.035 | 0 | 0 | 0 | 
C=CC(C)(O)CCC=C(C)C (stereo not drawn) [linalool] | 1.21% | 4.47% | 0% |  |  |  |  |  |  |  |  |  | 0 | 0 | 0 | OR13a response (VUAA1-normalized) at 1 μM (Drosophila OR13a): 0.00; OR13a response (VUAA1-normalized) at 10 μM (Drosophila OR13a): 0.00; OR13a response (VUAA1-normalized) at 100 μM (Drosophila OR13a): 0.00; OR98a DoOR response (OR98a; OR98a): 0.47; OR85b DoOR response (OR85b; OR85b): 0.16; OR49b DoOR response (OR49b; OR49b): 0.016; OR10a DoOR response (OR10a; OR10a): 0.001; OR13a DoOR response (OR13a; OR13a): 0.16; OR47a DoOR response (OR47a; OR47a): 0.04
CCCCOC(C)=O [butyl acetate] | 0% | 0% | 1.56% | 0% | 0% | 0% | 0.70 | 0.78 | 0.035 | 0.27 | 0.31 | 0.77 | 0 | 0 | 0 | 
OCCc1ccccc1 [phenethyl alcohol] | 6.58% | 6% | 3% |  |  |  |  |  |  |  |  |  | 0.06578 | 0.05738 | 0 | OR13a response (VUAA1-normalized) at 1 μM (Drosophila OR13a): 0.0658; OR13a response (VUAA1-normalized) at 10 μM (Drosophila OR13a): 0.06; OR13a response (VUAA1-normalized) at 100 μM (Drosophila OR13a): 0.00; OR98a DoOR response (OR98a; OR98a): -0.01; OR85b DoOR response (OR85b; OR85b): 0.006; OR49b DoOR response (OR49b; OR49b): 0.09; OR10a DoOR response (OR10a; OR10a): 0.014; OR13a DoOR response (OR13a; OR13a): 0.12; OR47a DoOR response (OR47a; OR47a): 0.009
CC(=O)c1ccccc1 [acetophenone] | 0% | 0% | 0% | 0% | 0% | 0% | 0.21 | 0.04 | 0.07 | 0.64 | 0.02 | 0.11 | 0 | 0 | 0 | 
O=Cc1ccccc1 [benzaldehyde] | 0% | 8% | 5% | 0% | 8% | 0% | 0.13 | 0.07 | 0.09 | 0.22 | 0.025 | 0.06 | 0 | 0.07623 | 0 | 
CC1=CC[C@@H](C(C)(C)O)CC1 [alpha-terpineol] | 3.36% | 0% | 0% | 0% | 0% | 0% | 0.033 | 0.11 | 0.006 | -0.005 | 0.023 | 0.018 | 0 | 0 | 0 | 
CCOC(=O)CC [ethyl propionate] | 0% | 0% | 0% | 0% | 0% | 0% | 0.08 | 0.066 | 0.017 | 0.064 | 0.034 | 0.16 | 0 | 0 | 0 | 
CCOC(=O)c1ccccc1 [ethyl benzoate] | 1.69% | 2.64% | 1.67% | 0% | 0% | 0% | 0.78 | -0.014 | 0.002 | 0.68 | 0.043 | 0.06 | 0 | 0 | 0 | 
